Patent publication US5688787A, “Substituted β-lactam compounds useful as hypochlesterolemic agents and processes for the preparation thereof” (priority 1996, dated 1997)
Read-outs that look alike come from different tables or passages of the source.

Tests used:
ACAT = target: T1, ACAT (Rattus norvegicus, UniProt Q7TQM4); experiment: ACAT Assay (in vitro); assay type: biochemical; details: for inhibition at 10 µM: Conc. 10 µM, negative = apparent stimulation, read-out: ACAT (in vitro) % Inhib.; for IC50: rat liver microsomes, read-out: ACAT (in vitro) IC50
T1 construct: Rat liver microsomes are used as the source of ACAT; from tissue; host or cells: rat liver microsomes
T1 sequence (Q7TQM4 1-524): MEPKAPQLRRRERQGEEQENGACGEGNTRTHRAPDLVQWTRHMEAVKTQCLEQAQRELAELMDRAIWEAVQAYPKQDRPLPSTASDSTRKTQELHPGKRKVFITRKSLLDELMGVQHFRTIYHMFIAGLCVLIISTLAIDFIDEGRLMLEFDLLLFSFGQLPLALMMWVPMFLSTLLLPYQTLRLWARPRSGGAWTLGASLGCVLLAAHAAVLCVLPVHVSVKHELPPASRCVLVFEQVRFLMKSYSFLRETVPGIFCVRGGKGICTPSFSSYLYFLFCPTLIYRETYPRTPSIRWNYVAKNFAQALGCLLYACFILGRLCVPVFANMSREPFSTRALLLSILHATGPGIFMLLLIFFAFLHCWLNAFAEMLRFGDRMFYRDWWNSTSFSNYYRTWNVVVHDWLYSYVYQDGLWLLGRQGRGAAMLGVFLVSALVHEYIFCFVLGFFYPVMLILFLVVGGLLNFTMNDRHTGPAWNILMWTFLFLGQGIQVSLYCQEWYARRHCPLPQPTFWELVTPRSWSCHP
Description: This assay measures the activity of ACAT by measuring the ACAT-mediated transfer of tritiated oleic acid from acyl-CoA to cholesterol to give labelled cholesteryl oleate. Rat liver microsomes are used as the source of ACAT. Assays are performed in round bottom microtiterplates using a total incubation volume of 50 μL. […] The microtiterplate is then floated on the surface of a 37° C. water bath for fifteen minutes. Incubations are started by the addition of 3 μL ^3 H-acyl CoA (1 μCi/well, final concentration of 10 μM acyl CoA). The plate is then returned to the water bath for 15 minutes. The incubations are then terminated by application of 15 μL from each incubation to individual lanes on a thin layer plate (Silica Gel GF 20×20 cm). Standards are applied to several lanes so that the cholesteryl ester band can be identified. After drying, the plates am eluted with 90:10:1 petroleum ether:diethyl ether:acetic acid. The standards am visualized via iodine vapor, and the regions corresponding to cholesteryl ester are scraped into 7 mL scintillation vials. 4 mL of scintillant are added to each vial, and the radioactivity quantified. Background count is determined by the boiled controls. Full activity is determined by activity in the presence of vehicle. The percent inhibition is calculated by subtracting the background from both control and test samples, and the test value is calculated as a percentage of the control.
For the in vitro ACAT data, negative percent inhibition denotes apparent stimulation,while positive numbers denote inhibition.

Hyperlipidemic Hamster = experiment: In Vivo Assay of Hypolipidemic Agents Using the Hyperlipidemic Hamster; details: Mesocricetus auratus, po, 168 h, 7 days, percent change versus control, negative = lowering; for change in vivo at 50 mg/kg: 50 mg/kg once daily oral; for change in vivo at 5 mg/kg: 5 mg/kg once daily oral; for change in vivo at 10 mg/kg: 10 mg/kg once daily oral; for change in vivo at 25 mg/kg: 25 mg/kg once daily oral; for change in vivo at 85 mg/kg: 85 mg/kg once daily oral
Outline: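 Test compound in corn oil was given orally once daily for seven days, starting with a 0.5% cholesterol diet, to groups of six hamsters; corn oil alone served as control. Plasma and hepatic lipids were analysed after decapitation. Results are expressed as percent change relative to control.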

[1] = read-out: % Reduction (in vivo) Cholest. Esters
[2] = read-out: % Reduction (in vivo) Serum Cholest.

SMILES | inhibition at 10 µM (ACAT) [%] | change in vivo at 50 mg/kg (Hyperlipidemic Hamster; [1]) [%] | change in vivo at 50 mg/kg (Hyperlipidemic Hamster; [2]) [%] | further results
COc1ccc(N2C(=O)[C@@H](CCCc3ccccc3)[C@@H]2C=Cc2ccccc2)cc1 (relative stereo) [Example 1K] | -70 | 0 | 0 | 
COc1ccc(N2C(=O)[C@@H](CCCc3ccccc3)[C@H]2c2ccc(O)cc2)cc1 (relative stereo) [Example 1L] | 20 | -75 | -31 | change in vivo at 5 mg/kg (Hyperlipidemic Hamster; [1]): -30%; change in vivo at 5 mg/kg (Hyperlipidemic Hamster; [2]): -25%; change in vivo at 10 mg/kg (Hyperlipidemic Hamster; [1]): -34%; change in vivo at 10 mg/kg (Hyperlipidemic Hamster; [2]): -22%
COc1ccc(C=C[C@H]2[C@H](CCCc3ccccc3)C(=O)N2c2ccc(OC)cc2)cc1 (relative stereo) [Example 1M] | 80 |  |  | IC50 (ACAT): 7 µM; change in vivo at 25 mg/kg (Hyperlipidemic Hamster; [1]): -31%; change in vivo at 25 mg/kg (Hyperlipidemic Hamster; [2]): -11%
COc1ccc(N2C(=O)[C@@H](CCCc3ccccc3)[C@H]2c2cccc(OC)c2)cc1 (relative stereo) [Example 1P] | 39 | -54 | -19 | 
CCCCCCCCCC[C@H]1C(=O)N(c2ccc(OC)cc2)[C@H]1c1ccccc1 (relative stereo) [Example 1S] | -19 |  |  | change in vivo at 85 mg/kg (Hyperlipidemic Hamster; [1]): -32%; change in vivo at 85 mg/kg (Hyperlipidemic Hamster; [2]): 0%
CCCCCCCCCC[C@@H]1C(=O)N(c2ccc(OC)cc2)[C@H]1c1ccccc1 (relative stereo) [Example 1T] | -11 | 0 | 0 | 
COc1ccc(N2C(=O)[C@@](Cc3ccccc3)(c3ccccc3)[C@@H]2c2ccccc2)cc1 (relative stereo) [Example 1X] | 9 | 0 | -12 | 
CC[C@@]1(c2ccccc2)C(=O)N(c2ccc(OC)cc2)[C@H]1c1ccccc1 (relative stereo) [Example 1Z] | -15 | -39 | -15 | 
CC[C@@]1(CCCc2ccccc2)C(=O)N(c2ccc(OC)cc2)[C@H]1c1ccccc1 (relative stereo) [Example 3A] | 33 | -29 | -12 | 
COc1ccc(N2C(=O)[C@](CCCc3ccccc3)(c3ccccc3)[C@@H]2c2ccccc2)cc1 (relative stereo) [Example 3B] | 84 | -16 | -11 | 
CC[C@@]1(CCCc2ccccc2)C(=O)N(c2c(OC)cc(OC)cc2OC)[C@H]1c1ccccc1 (relative stereo) [Example 3D] | 42 | 0 | 0 | IC50 (ACAT): 12 µM
CC[C@]1(CCCc2ccccc2)C(=O)N(c2ccc(OC)cc2)[C@H]1c1ccccc1 (relative stereo) [Example 3E] | -24 | 0 | 0 | 
CC[C@]1(CCCc2ccccc2)C(=O)N(c2c(OC)cc(OC)cc2OC)[C@H]1c1ccccc1 (relative stereo) [Example 3F] | 82 | -31 | 0 | 
CC[C@@]1(CCCc2ccccc2)C(=O)N(c2ccc(OC)cc2)[C@H]1C=Cc1ccccc1 (relative stereo) [Example 3G] | 74 | 0 | 9 | IC50 (ACAT): 5 µM
CC[C@]1(CCc2ccccc2)C(=O)N(c2ccc(OC)cc2)[C@H]1c1ccccc1 (relative stereo) [Example 3H] | 66 | 31 | -10 | 
COc1ccc(N2C(=O)[C@](C)(CCc3ccccc3)[C@@H]2c2ccccc2)cc1 (relative stereo) [Example 3I] | 43 | 0 | -9 | 
COc1ccc(N2C(=O)[C@@](C)(CCCc3ccccc3)[C@@H]2c2ccccc2)cc1 (relative stereo) [Example 3J] | 45 | -16 | 0 | 

SMILES | inhibition at 10 µM (ACAT) [%] | change in vivo at 50 mg/kg (Hyperlipidemic Hamster; [1]) [%] | change in vivo at 50 mg/kg (Hyperlipidemic Hamster; [2]) [%] | further results
COc1ccc(N2C(=O)[C@@](C)(CCCCc3ccccc3)[C@@H]2c2ccccc2)cc1 (relative stereo) [Example 3K] | 19 | 0 | 0 | 
CC[C@@]1(CCCCc2ccccc2)C(=O)N(c2ccc(OC)cc2)[C@H]1c1ccccc1 (relative stereo) [Example 3L] | 53 |  |  | change in vivo at 25 mg/kg (Hyperlipidemic Hamster; [1]): 0%; change in vivo at 25 mg/kg (Hyperlipidemic Hamster; [2]): 0%
CC[C@]1(CCCc2ccccc2)C(=O)N(c2ccc(OC)cc2)[C@H]1c1ccc(OC)cc1 (relative stereo) [Example 3M] | 13 | 0 | 0 | 
CC[C@@]1(CCCc2ccccc2)C(=O)N(c2ccc(OC)cc2)[C@H]1c1ccc(OC)cc1 (relative stereo) [Example 3O] | -28 | 0 | 0 | 
CCCCCCCCCC[C@]1(c2ccccc2)C(=O)N(c2ccc(OC)cc2)[C@H]1c1ccccc1 (relative stereo) [Example 3R] | -8 | 0 | 0 | 
CCCCCCCCCC[C@]1(CCCc2ccccc2)C(=O)N(c2ccc(OC)cc2)[C@@H]1c1ccccc1 (relative stereo) [Example 3U] | 46 | 0 | 0 | 
CCCCCCCCCC[C@]1(CC)C(=O)N(c2c(OC)cc(OC)cc2OC)[C@@H]1c1ccccc1 (relative stereo) [Example 3V] | 60 | 0 | 0 | IC50 (ACAT): 6.5 µM
CCCCCCCCCC[C@@]1(CC)C(=O)N(c2c(OC)cc(OC)cc2OC)[C@@H]1c1ccccc1 (relative stereo) [Example 3W] | 56 | 0 | 0 | 
CCCCCCCCCC[C@]1(C)C(=O)N(c2ccc(OC)cc2)[C@H]1c1ccccc1 (relative stereo) [Example 3Y] | -33 | 0 | 0 | 
CC[C@@]1(CCCc2ccccc2)C(=O)N(c2ccc(OC)cc2)[C@@H]1/C=C/c1ccccc1 (relative stereo) [Example 3] | 56 | 0 | 0 | 
COc1ccc([C@@H]2[C@@H](CCCCc3ccccc3)C(=O)N2c2ccc(OC)cc2)cc1 (relative stereo) [Example 5AB] | 30 | -72 | -28 | 
COc1ccc(N2C(=O)[C@H](CCCc3ccccc3)[C@H]2c2cccc(OC)c2)cc1 (relative stereo) [Example 5C] | 21 | -24 | -17 | 
COc1ccc([C@@H]2[C@@H](N(C)CCc3ccccc3)C(=O)N2c2ccccc2)cc1 (relative stereo) [Example 5N] | -23 | -55 | -17 | 
COc1ccc(N2C(=O)[C@H](CCCc3ccccc3)[C@H]2c2ccc(OC)c(OC)c2)cc1 (relative stereo) [Example 5P] | 53 | -33 | -11 | 
COc1ccc(N2C(=O)[C@H](CCCc3ccccc3)[C@H]2c2ccc3c(c2)OCO3)cc1 (relative stereo) [Example 5Q] | -36 | -19 | 0 | 
COc1ccc(N2C(=O)[C@H](CCCc3ccccc3)[C@H]2c2ccc(C)cc2)cc1 (relative stereo) [Example 5R] | 18 | -21 | -20 | 
